Measurements reported in patent publication US20110065796A1 (SHIRE LLC, priority 2009, published 2011).

Assays:
[1] = Prodrug stability in simulated gastric fluid; details: 37° C., pH 1.1, HPLC
Procedure: (§1) The remaining concentrations of the prodrugs were then assayed by H PLC.

[2] = Prodrug stability in simulated intestinal fluid; details: 37° C., pH 6.8, HPLC
Procedure: as §1

Structure (SMILES) | % prodrug remaining following incubation for 1 h in simulated gastric fluid pH 1.1 [1] [%] | % prodrug remaining following incubation for 2 h in simulated intestinal fluid pH 6.8 [2] [%]
N=C(NC(=O)CCCNC(=O)[C@@H]1CCC(=O)N1)NC(=O)Cc1c(Cl)cccc1Cl [Compound 23, Guanfacine (GABA-(S)-Pyroglutamic acid) Amide] | 98 | 78
CC(C)[C@@H](N)C(=O)N[C@@H](C(=O)NC(=N)NC(=O)Cc1c(Cl)cccc1Cl)C(C)C [Compound 54, Guanfacine ((R)-Valine-(R)-Valine) Amide] | 73 | 66
CC(C)[C@H](NC(=O)COC(=O)NC(=N)NC(=O)Cc1c(Cl)cccc1Cl)C(=O)O [Compound 29, Guanfacine (Glycolyl-(S)-Valine) Carbamate] | 80 | 99
CC(C)[C@@H](N)C(=O)N[C@H](CCC(=O)NC(=N)NC(=O)Cc1c(Cl)cccc1Cl)C(=O)O [Compound 31, Guanfacine ((R)-γ-Glutamate (R)-Valine) Amide] | 70 | 85
N=C(NC(=O)CC[C@H](NC(=O)[C@@H]1CCC(=O)N1)C(=O)O)NC(=O)Cc1c(Cl)cccc1Cl [Compound 6, Guanfacine ((S)-γ-Glutamate-(S)-Pyroglutamic acid) Amide] | 81 | 98
O=C(O)CC1N=C(NC(=O)Cc2c(Cl)cccc2Cl)NC1=O (centres unmarked) [Compound 4, Guanfacine Fumaryl Cyclic Adduct] | 97 | 84
N=C(NC(=O)CC[C@H](NC(=O)c1ccc(C(=O)O)cc1)C(=O)O)NC(=O)Cc1c(Cl)cccc1Cl [Compound 60, Guanfacine ((S)-γ-Glutamate-Terephthalic acid) Amide] | 81 | 97
O=C1CCN=C(NC(=O)Cc2c(Cl)cccc2Cl)N1 [Compound 34, Guanfacine-β-Alanine Cyclic Adduct] | 51 | 91
N=C(NC(=O)Cc1c(Cl)cccc1Cl)NC(=O)OCCNC(=O)[C@@H]1CCC(=O)N1 [Compound 28, Guanfacine (Ethanolamine-(S)-Pyroglutamic acid) Carbamate] | 103 | 106
CC(C)[C@H](N)C(=O)N[C@H](CCC(=O)NC(=N)NC(=O)Cc1c(Cl)cccc1Cl)C(=O)O [Compound 32, Guanfacine ((R)-γ-Glutamate-(S)-Valine) Amide] | 93 | 84
N=C(NC(=O)Cc1c(Cl)cccc1Cl)NC(=O)OCC[C@H](N)C(=O)O [Compound 65, Guafacine (S)-Homoserine Carbamate] | 90 | 99
C[C@H]1N=C(NC(=O)Cc2c(Cl)cccc2Cl)NC1=O [Compound 51, Guanfacine-(R)-Alanine Cyclic Adduct] | 80 | 103
NC(=O)CC[C@@H]1N=C(NC(=O)Cc2c(Cl)cccc2Cl)NC1=O [Compound 38, Guanfacine-(S)-Glutamine Cyclic Adduct] | 70 | 87
CC(C)[C@@H](NC(=O)c1ccc(N)cc1)C(=O)NC(=N)NC(=O)Cc1c(Cl)cccc1Cl [Compound 55, Guanfacine ((R)-Valine-PABA) Amide] | 65 | 91
CC(C)[C@@H](N)C(=O)N[C@H](C(=O)O)[C@@H](C)OC(=O)NC(=N)NC(=O)Cc1c(Cl)cccc1Cl [Compound 21, Guanfacine ((S)-Threonine-(R)-Valine) Carbamate] | 83 | 103

Results, then the compound that gave them:

% prodrug remaining following incubation for 1 h in simulated gastric fluid pH 1.1 [1] [%] | % prodrug remaining following incubation for 2 h in simulated intestinal fluid pH 6.8 [2] [%] | Structure (SMILES)
86 | 101 | CNCC(=O)N[C@@H](CCOC(=O)NC(=N)NC(=O)Cc1c(Cl)cccc1Cl)C(=O)O [Compound 66, Guanfacine ((S)-Homoserine-Sarcosine) Carbamate]
61 | 81 | N=C(NC(=O)CC[C@H](NC(=O)[C@H](N)CCC(N)=O)C(=O)O)NC(=O)Cc1c(Cl)cccc1Cl [Compound 46, Guanfacine ((S)-γ-Glutamate-(R)-Glutamine) Amide]
85 | 96 | CC(C)(CO)[C@@H](O)C(=O)NCCCOC(=O)NC(=N)NC(=O)Cc1c(Cl)cccc1Cl [Compound 69, Guanfacine Panthenol Carbamate]
74 | 91 | N=C(NC(=O)CC[C@H](NC(=O)[C@H](N)Cc1ccc(O)cc1)C(=O)O)NC(=O)Cc1c(Cl)cccc1Cl [Compound 45, Guanfacine ((S)-γ-Glutamate-(R)-Tyrosine) Amide]
74 | 108 | CC(C)[C@@H](N)C(=O)N[C@@H](COC(=O)NC(=N)NC(=O)Cc1c(Cl)cccc1Cl)C(=O)O [Compound 18, Guanfacine ((S)-Serine-(R)-Valine) Carbamate]
79 | 100 | CC(C)[C@H](N)C(=O)N[C@H](C(=O)O)[C@@H](C)OC(=O)NC(=N)NC(=O)Cc1c(Cl)cccc1Cl [Compound 20, Guanfacine ((S)-Threonine-(S)-Valine) Carbamate]
89 | 104 | C[C@@H]1N=C(NC(=O)Cc2c(Cl)cccc2Cl)NC1=O [Compound 39, Guanfacine-(S)-AlanineCyclic Adduct]
70 | 108 | N=C(NC(=O)Cc1c(Cl)cccc1Cl)NC(=O)O[C@@H]1CN[C@H](C(=O)O)C1 [Compound 14, Guanfacine (S,S)-4-Hydroxyproline Carbamate]
83 | 108 | CC(C)[C@@H]1N=C(NC(=O)Cc2c(Cl)cccc2Cl)NC1=O [Compound 35, Guanfacine-(S)-Valine Cyclic Adduct]
78 | 111 | CC(C)[C@@H](N)C(=O)NCCOC(=O)NC(=N)NC(=O)Cc1c(Cl)cccc1Cl [Compound 27, Guanfacine (Ethanolamine-(R)-Valine) Carbamate]
